Source: the supplement of paper PMC9663587

How the values were obtained:
THZ1 [1] = compound: T1, CN(C)C/C=C/C(=O)Nc1ccc(C(=O)Nc2cccc(Nc3ncc(Cl)c(-c4c[nH]c5ccccc45)n3)c2)cc1 [THZ1]; assay: GR value, 72 h; higher = faster growth (1 = untreated, <0 = killing);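 further: breast cancer and non-malignant breast epithelial lines, nine half-log doses, viable cells counted by Hoechst and LIVE/DEAD dye imaging versus time-zero plates and DMSO controls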
Neratinib/HKI272 [2] = compound: T2, CCOc1cc2ncc(C#N)c(Nc3ccc(OCc4ccccn4)c(Cl)c3)c2cc1NC(=O)/C=C/CN(C)C [Neratinib/HKI272]; assay: as above
THZ1 [3] = compound: T1, THZ1; assay: increase in dead-cell fraction, 72 h; higher = more death;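 further: breast cancer cell lines in 384-well plates, stained with Hoechst plus LIVE/DEAD far red dye and imaged, cells above an LDR intensity threshold counted dead, Hoechst-negative corpses included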
Flavopiridol = compound: CN1CC[C@H](c2c(O)cc(O)c3c(=O)cc(-c4ccccc4Cl)oc23)[C@H](O)C1 [Flavopiridol]; assay: as above
LEE011/Ribociclib = compound: CN(C)C(=O)c1cc2cnc(Nc3ccc(N4CCNCC4)cn3)nc2n1C1CCCC1 [LEE011/Ribociclib]; assay: as above
[4] = compound: CCN1CCN(Cc2ccc(Nc3ncc(F)c(-c4cc(F)c5nc(C)n(C(C)C)c5c4)n3)nc2)CC1; assay: as above
THZ531 = compound: CN(C)C/C=C/C(=O)Nc1ccc(C(=O)N2CCC[C@@H](Nc3ncc(Cl)c(-c4c[nH]c5ccccc45)n3)C2)cc1 [THZ531]; assay: as above
[5] = compound: CCc1cnn2c(NCc3ccc[n+]([O-])c3)cc(N3CCCC[C@H]3CCO)nc12; assay: as above
Neratinib/HKI272 [6] = compound: T2, Neratinib/HKI272; assay: as above
BSJ-03-123 = compound: CC(=O)c1c(C)c2cnc(Nc3ccc(N4CCN(CCOCCOCCOCCNC(=O)COc5cccc6c5C(=O)N(C5CCC(=O)NC5=O)C6=O)CC4)cn3)nc2n(C2CCCC2)c1=O [BSJ-03-123]; assay: as above
[7] = compound: CC(=O)c1c(C)c2cnc(Nc3ccc(N4CCNCC4)cn3)nc2n(C2CCCC2)c1=O; assay: as above
YKL-5-124 = compound: C=CC(=O)Nc1ccc(C(=O)Nc2[nH]nc3c2CN(C(=O)N[C@H](CN(C)C)c2ccccc2)C3(C)C)cc1 [YKL-5-124]; assay: as above

## BT549
THZ1 [1]; 0.0001 µM
  GR value: 1.06 GR
THZ1 [1]; 0.0003162 µM
  GR value: 1.01 GR
THZ1 [1]; 0.001 µM
  GR value: 1.02 GR
THZ1 [1]; 0.003162 µM
  GR value: 0.979 GR
THZ1 [1]; 0.01 µM
  GR value: 0.909 GR
THZ1 [1]; 0.03162 µM
  GR value: 0.69 GR
THZ1 [1]; 0.1 µM
  GR value: 0.16 GR
THZ1 [1]; 0.3162 µM
  GR value: -0.171 GR
THZ1 [1]; 1 µM
  GR value: -0.317 GR
Neratinib/HKI272 [2]; 0.0003162 µM
  GR value: 1.02 GR
Neratinib/HKI272 [2]; 0.001 µM
  GR value: 1.03 GR
Neratinib/HKI272 [2]; 0.003162 µM
  GR value: 1 GR
Neratinib/HKI272 [2]; 0.01 µM
  GR value: 1.04 GR
Neratinib/HKI272 [2]; 0.03162 µM
  GR value: 1.02 GR
Neratinib/HKI272 [2]; 0.1 µM
  GR value: 0.969 GR
Neratinib/HKI272 [2]; 0.3162 µM
  GR value: 0.904 GR
Neratinib/HKI272 [2]; 1 µM
  GR value: 0.793 GR
Neratinib/HKI272 [2]; 3.162 µM
  GR value: 0.196 GR
THZ1 [3]; 0.0001 µM
  increase in dead-cell fraction: -0.0033
THZ1 [3]; 0.0003162 µM
  increase in dead-cell fraction: -0.0013
THZ1 [3]; 0.001 µM
  increase in dead-cell fraction: -0.0005
THZ1 [3]; 0.003162 µM
  increase in dead-cell fraction: -0.0025
THZ1 [3]; 0.01 µM
  increase in dead-cell fraction: 0.0024
THZ1 [3]; 0.03162 µM
  increase in dead-cell fraction: 0.0096
THZ1 [3]; 0.1 µM
  increase in dead-cell fraction: 0.112
THZ1 [3]; 0.3162 µM
  increase in dead-cell fraction: 0.179
THZ1 [3]; 1 µM
  increase in dead-cell fraction: 0.27
Flavopiridol; 0.0001 µM
  increase in dead-cell fraction: 0.0048
Flavopiridol; 0.0003162 µM
  increase in dead-cell fraction: -0.0007
Flavopiridol; 0.001 µM
  increase in dead-cell fraction: -0.0015
Flavopiridol; 0.003162 µM
  increase in dead-cell fraction: 0.0036
Flavopiridol; 0.01 µM
  increase in dead-cell fraction: -0.0014
Flavopiridol; 0.03162 µM
  increase in dead-cell fraction: 0.0045
Flavopiridol; 0.1 µM
  increase in dead-cell fraction: 0.0204
Flavopiridol; 0.3162 µM
  increase in dead-cell fraction: 0.164
Flavopiridol; 1 µM
  increase in dead-cell fraction: 0.514
LEE011/Ribociclib; 0.001 µM
  increase in dead-cell fraction: 0.0033
LEE011/Ribociclib; 0.003162 µM
  increase in dead-cell fraction: -0.0034
LEE011/Ribociclib; 0.01 µM
  increase in dead-cell fraction: -0.0015
LEE011/Ribociclib; 0.03162 µM
  increase in dead-cell fraction: -0.0014
LEE011/Ribociclib; 0.1 µM
  increase in dead-cell fraction: -0.0023
LEE011/Ribociclib; 0.3162 µM
  increase in dead-cell fraction: -0.0023
LEE011/Ribociclib; 1 µM
  increase in dead-cell fraction: -0.0003
LEE011/Ribociclib; 3.162 µM
  increase in dead-cell fraction: 0.0011
LEE011/Ribociclib; 10 µM
  increase in dead-cell fraction: -0.0008
[4]; 0.001 µM
  increase in dead-cell fraction: -0.0017
[4]; 0.003162 µM
  increase in dead-cell fraction: -0.0033
[4]; 0.01 µM
  increase in dead-cell fraction: 0.0079
[4]; 0.03162 µM
  increase in dead-cell fraction: -0.0016
[4]; 0.1 µM
  increase in dead-cell fraction: 0.0009
[4]; 0.3162 µM
  increase in dead-cell fraction: -0.01
[4]; 1 µM
  increase in dead-cell fraction: 0.0019
[4]; 3.162 µM
  increase in dead-cell fraction: 0.024
[4]; 10 µM
  increase in dead-cell fraction: 0.139
THZ531; 0.0001 µM
  increase in dead-cell fraction: 0
THZ531; 0.0003162 µM
  increase in dead-cell fraction: 0
THZ531; 0.001 µM
  increase in dead-cell fraction: 0.0005
THZ531; 0.003162 µM
  increase in dead-cell fraction: 0.0003
THZ531; 0.01 µM
  increase in dead-cell fraction: -0.0022
THZ531; 0.03162 µM
  increase in dead-cell fraction: 0.0026
THZ531; 0.1 µM
  increase in dead-cell fraction: 0.0062
THZ531; 0.3162 µM
  increase in dead-cell fraction: 0.0485
THZ531; 1 µM
  increase in dead-cell fraction: 0.365
[5]; 0.0001 µM
  increase in dead-cell fraction: -0.0017
[5]; 0.0003162 µM
  increase in dead-cell fraction: -0.0119
[5]; 0.001 µM
  increase in dead-cell fraction: 0.0095
[5]; 0.003162 µM
  increase in dead-cell fraction: 0.0067
[5]; 0.01 µM
  increase in dead-cell fraction: 0.0717
[5]; 0.03162 µM
  increase in dead-cell fraction: 0.309
[5]; 0.1 µM
  increase in dead-cell fraction: 0.338
[5]; 0.3162 µM
  increase in dead-cell fraction: 0.295
[5]; 1 µM
  increase in dead-cell fraction: 0.346
Neratinib/HKI272 [6]; 0.0003162 µM
  increase in dead-cell fraction: 0.0052
Neratinib/HKI272 [6]; 0.001 µM
  increase in dead-cell fraction: 0.0037
Neratinib/HKI272 [6]; 0.003162 µM
  increase in dead-cell fraction: 0.0077
Neratinib/HKI272 [6]; 0.01 µM
  increase in dead-cell fraction: -0.001
Neratinib/HKI272 [6]; 0.03162 µM
  increase in dead-cell fraction: 0.0074
Neratinib/HKI272 [6]; 0.1 µM
  increase in dead-cell fraction: -0.0081
Neratinib/HKI272 [6]; 0.3162 µM
  increase in dead-cell fraction: 0.0066
Neratinib/HKI272 [6]; 1 µM
  increase in dead-cell fraction: 0.0035
Neratinib/HKI272 [6]; 3.162 µM
  increase in dead-cell fraction: 0.102
BSJ-03-123; 0.001 µM
  increase in dead-cell fraction: -0.0011
BSJ-03-123; 0.003162 µM
  increase in dead-cell fraction: -0.0008
BSJ-03-123; 0.01 µM
  increase in dead-cell fraction: -0.0008
BSJ-03-123; 0.03162 µM
  increase in dead-cell fraction: 0.0023
BSJ-03-123; 0.1 µM
  increase in dead-cell fraction: 0.0017
BSJ-03-123; 0.3162 µM
  increase in dead-cell fraction: -0.0023
BSJ-03-123; 1 µM
  increase in dead-cell fraction: 0.0009
BSJ-03-123; 3.162 µM
  increase in dead-cell fraction: 0.0085
BSJ-03-123; 10 µM
  increase in dead-cell fraction: 0.184
[7]; 0.0003162 µM
  increase in dead-cell fraction: 0.003
[7]; 0.001 µM
  increase in dead-cell fraction: 0.0092
[7]; 0.003162 µM
  increase in dead-cell fraction: 0.0021
[7]; 0.01 µM
  increase in dead-cell fraction: 0.0028
[7]; 0.03162 µM
  increase in dead-cell fraction: -0.0008
[7]; 0.1 µM
  increase in dead-cell fraction: 0.0025
[7]; 0.3162 µM
  increase in dead-cell fraction: -0.0015
[7]; 1 µM
  increase in dead-cell fraction: -0.0066
[7]; 3.162 µM
  increase in dead-cell fraction: -0.0162
YKL-5-124; 0.001 µM
  increase in dead-cell fraction: 0.0189
YKL-5-124; 0.003162 µM
  increase in dead-cell fraction: 0.0362
YKL-5-124; 0.01 µM
  increase in dead-cell fraction: 0.097
YKL-5-124; 0.03162 µM
  increase in dead-cell fraction: 0.158
YKL-5-124; 0.1 µM
  increase in dead-cell fraction: 0.169
YKL-5-124; 0.3162 µM
  increase in dead-cell fraction: 0.169
YKL-5-124; 1 µM
  increase in dead-cell fraction: 0.196
YKL-5-124; 3.162 µM
  increase in dead-cell fraction: 0.228
YKL-5-124; 10 µM
  increase in dead-cell fraction: 0.614
